The values that follow come from patent US7319152B2 (Wyeth, priority 2005, dated 2008).

Where “and” joins values, the source holds several entries; their conditions need not be identical. Identical values can stand only once.

The target of the first experiment is T1, PR (Homo sapiens, UniProt P06401).
T1 construct: alkaline phosphatase activity in T47D cells; endogenous in cells; host or cells: T47D cells
T1 sequence (P06401 1-933): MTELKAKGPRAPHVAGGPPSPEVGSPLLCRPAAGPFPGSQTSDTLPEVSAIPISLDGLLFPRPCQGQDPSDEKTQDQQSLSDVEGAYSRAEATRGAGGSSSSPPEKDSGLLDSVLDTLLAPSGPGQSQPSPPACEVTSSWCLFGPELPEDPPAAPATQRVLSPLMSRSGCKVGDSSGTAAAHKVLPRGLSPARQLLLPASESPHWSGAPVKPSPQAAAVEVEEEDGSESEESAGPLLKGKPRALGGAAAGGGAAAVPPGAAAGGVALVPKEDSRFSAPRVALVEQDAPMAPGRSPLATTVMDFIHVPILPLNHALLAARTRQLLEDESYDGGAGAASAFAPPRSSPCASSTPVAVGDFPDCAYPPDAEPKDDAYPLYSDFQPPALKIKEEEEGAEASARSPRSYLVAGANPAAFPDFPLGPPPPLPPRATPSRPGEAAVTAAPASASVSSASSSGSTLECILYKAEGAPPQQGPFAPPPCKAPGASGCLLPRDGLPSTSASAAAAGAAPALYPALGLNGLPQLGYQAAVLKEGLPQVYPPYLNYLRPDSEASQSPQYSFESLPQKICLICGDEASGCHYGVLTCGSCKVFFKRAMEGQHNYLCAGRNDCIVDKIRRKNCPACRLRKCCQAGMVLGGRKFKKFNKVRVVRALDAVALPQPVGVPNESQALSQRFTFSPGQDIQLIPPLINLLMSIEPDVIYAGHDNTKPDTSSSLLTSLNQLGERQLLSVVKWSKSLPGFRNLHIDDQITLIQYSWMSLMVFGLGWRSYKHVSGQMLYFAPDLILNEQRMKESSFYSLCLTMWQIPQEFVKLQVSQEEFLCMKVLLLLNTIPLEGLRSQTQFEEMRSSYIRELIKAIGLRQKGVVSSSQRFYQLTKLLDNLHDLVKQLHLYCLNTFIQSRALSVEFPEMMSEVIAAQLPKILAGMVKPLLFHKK
Description: T47D cell alkaline phosphatase assay. It is filed as cell-based. To be noted: T47D cells, agonist mode; read-out: Alk. Phos. EC50. Here is the method:
(a) Purpose: To identify progestins or antiprogestins by determining a compound's effect on alkaline phosphatase activity in T47D cells. […] Cell Culture and Treatment • Frozen T47D cells were thawed in a 37° C. water bath and diluted to 280,000 cells/ml in culture medium. To each well in a 96-well plate (Falcon, Becton Dickinson Labware), 180 ? L of diluted cell suspension was added. Twenty ? L of reference or test compounds diluted in the culture medium was then added to each well. […] The cells were incubated at 37° C. in a 5% CO2humidified atmosphere for 24 hours. • Note: For high throughput screening, one concentration of each compound was tested at 0.3 mg/ml. […] Alkaline Phosphatase Enzyme Assay • At the end of treatment, the medium was removed from the plate. Fifty ? L of assay buffer I was added to each well. The plates were shaken in a titer plate shaker for 15 minutes. Then 150 ? L of assay buffer II was added to each well. […] Square root-transformed data were used for analysis of variance and nonlinear dose response curve fitting for both agonist and antagonist modes. Huber weighting was used to downweight the effects of outliers. EC50 or IC50 values were calculated from the retransformed values. JMP software (SAS Institute, Inc.) was used for both one-way analysis of variance and non-linear dose response analyses in both single dose and dose response studies.
With `Cn1c(C#N)ccc1-c1ccc2c(c1)C(C)(C)CC2=O` [Example 3, 5-(3,3-dimethyl-1-oxo-2,3-dihydro-1H-inden-5-yl)-1-methyl-1H-pyrrole-2-carbonitrile], the EC50 turned out to be 10 nM.

Still in this experiment, the particulars now being: read-out: Alk. Phos. IC50.
Take `CC1(C)CC(=O)c2ccc(-c3ccc(Cl)cc3)cc21` [Example 21, 5-(4-chlorophenyl)-3,3-dimethylindan-1-one]: the IC50 was 200 nM.
Still for that read-out and setting: under `Cn1c(C#N)ccc1-c1ccc(C(=O)c2ccccc2)cc1` [Example 11, 5-(4-benzoylphenyl)-1-methyl-1H-pyrrole-2-carbonitrile] stands 300 nM; under `Cn1c(C#N)ccc1-c1ccc(C(=O)c2cccs2)cc1` [Example 10, 1-methyl-5-[4-(thien-2-ylcarbonyl)phenyl]-1H-pyrrole-2-carbonitrile], 266 nM; under `CCC(=O)c1ccc(-c2ccc(C#N)n2C)cc1` [Example 9, 1-methyl-5-(4-propionylphenyl)-1H-pyrrole-2-carbonitrile], 115 nM.
Still for that read-out and setting: under `Cn1c(C#N)ccc1-c1ccc2c(c1)CCCC2=O` [Example 13, 1-methyl-5-(5-oxo-5,6,7,8-tetrahydronaphthalen-2-yl)-1H-pyrrole-2-carbonitrile] stands 27.5 nM; under `CC1(C)CC(=O)c2ccc(-c3ccccc3Cl)cc21` [Example 32, 5-(2-chlorophenyl)-3,3-dimethylindan-1-one], 737 nM; under `Cc1ccc(-c2ccc3c(c2)C(C)(C)CC3=O)cc1` [Example 26, 3,3-dimethyl-5-(4-methylphenyl)indan-1-one], 877 nM.
Consider `CC1(C)CC(=O)c2ccc(-c3cc(Cl)ccc3Cl)cc21` [Example 35, 5-(2,5-dichlorophenyl)-3,3-dimethylindan-1-one], for which the IC50 worked out at 632 nM.
As to `CC1(C)CC(=O)c2ccc(-c3cccc(Cl)c3)cc21` [Example 28, 5-(3-chlorophenyl)-3,3-dimethylindan-1-one], the IC50 was determined as 66.3 nM.
On to `CC1(C)CC(=O)c2ccc(-c3ccccc3)cc21` [Example 37, 3,3-dimethyl-5-phenylindan-1-one], for which the IC50 came out at 300 nM.
In the case of `CC1(C)CC(=O)c2ccc(-c3ccc(Cl)cc3Cl)cc21` [Example 36, 5-(2,4-dichlorophenyl)-3,3-dimethylindan-1-one], the IC50 came out at 349 nM.
In the case of `CC1(C)CC(=O)c2ccc(-c3ccc(F)c(Cl)c3)cc21` [Example 38, 5-(3-chloro-4-fluorophenyl)-3,3-dimethylindan-1-one], the IC50 came to 100 nM.
Same read-out and setting: under `Cc1cccc(-c2ccc3c(c2)C(C)(C)CC3=O)c1` [Example 29, 3,3-dimethyl-5-(3-methylphenyl)indan-1-one] stands 225 nM.

The test system of another experiment is rat uterine decidualization. Description: Rat decidualization assay. It is filed as in vivo. As to conditions: ovariectomized Sprague-Dawley rats, s.c., average of dose-response curves. The protocol: The animals were treated once daily for seven days. […] In all studies, a control group receiving vehicle was included. […] The contralateral horn was not scratched and served as an unstimulated control. Approximately 24 hoursfollowing the final treatment, rats were sacrificed by CO2 asphyxiation and body weight measured. Uteri were removed and trimmed of fat. Decidualized (D-horn) and control (C-horn) uterine horns were weighed separately.
Body weight: Mean total animal body weight (default-kg)
D-horn: Wet weight of decidualized uterine horn (default-kg)
C-horn: Wet weight of control uterine horn (default-kg)
Decidual response: [(D−C)/C]×100%
`C#C[C@]1(O)CC[C@H]2[C@@H]3CCC4=CC(=O)CC[C@@H]4[C@H]3CC[C@@]21CC` [Levonorgestrel]: the “Estimated average EC50 for uterine wet weight” value is 0.10 mg/kg, s.c.
The same measure, in the same setting: under `C#C[C@]1(O)CC[C@H]2[C@@H]3CCC4=CC(=O)CC[C@@H]4[C@H]3C(=C)C[C@@]21CC` [3-Ketodesogestrel] stands 0.10 mg/kg, s.c.

The experiment is the same for the next values; noted with them: ovariectomized rats, p.o., with EC50 dose of progesterone (5.6 mg/kg), individual studies.
With `CC#C[C@]1(O)CC[C@H]2[C@@H]3CCC4=CC(=O)CCC4=C3[C@@H](c3ccc(N(C)C)cc3)C[C@@]21C` [RU486], the “Estimated IC50 for uterine weight” value was 0.21 mg/kg, p.o. and 0.14 mg/kg, p.o.
